Measurements reported in patent US20220264878A1, “HERBICIDAL COMPOSITION CONTAINING R-TYPE PYRIDYLOXY CARBOXYLIC ACID DERIVATIVE AND USE THEREOF” (Qingdao Kingagroot Chemical Compound Co., Ltd., priority 2019, published 2022).

How the values were obtained:
Assay type in all cases: in vivo
[1] = system: Echinochloa caudate; assay: Post-emergence foliage spray, pot culture, fresh weight inhibition (Tables 1-48, 51-98, 101-148; 24 days)
Procedure, shortened: (§1)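 Pot-grown weeds were thinned to 15 per pot (45 per treatment) and sprayed on foliage at the 5–6-leaf stage for grasses or the 6–7-leaf stage for broadleaves. Agents were dissolved in acetone with 0.1% Tween-80 and applied at 450 kg/ha spray volume and 0.3 MPa. Plants were then kept in a greenhouse. Above-ground fresh weight of survivors, with dead plants counted as zero, gave inhibition versus a solvent/emulsifier blank.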

[2] = system: Malachium aquaticum; assay: as above
Procedure, shortened: as §1

[3] = system: Chenopodium album; assay: as above
Procedure, shortened: as §1

[4] = system: Echinochloa caudate; assay: Soil sealing treatment, pot culture, fresh weight inhibition (Tables 99, 100)
Experimental: (§2) A method for investigating absolute number was employed, wherein whole seedlings of survival weeds were cut off with a blade along the soil surface, and the fresh weight of the weeds was weighed with an analytical balance. For dead weeds, the fresh weight thereof was zero.
Theoretical fresh weight inhibition rate of a combination of two active ingredients in each group was calculated by the Gowing method (E0=X+Y−X*Y/100), and then compared with an actually measured inhibition rate (E), thereby effect of the combination (hereafter referred to as combined effect) on weeds was evaluated: the value of E-E0, which was greater than 10%, corresponded to a synergistic effect, the value of E-E0, which was less than −10%, corresponded to an antagonistic effect, and the value of E-E0, which was from −10% to 10%, corresponded to an additional effect. […] Wherein, in the formula, X represented the fresh weight inhibition rate of the active ingredient A in a dosage of P, and Y represented the fresh weight inhibition rate of the active ingredient B in a dosage of Q.
Echinochloa crusgalli var zelayensis were collected in Huai'an of Jiangsu Province; Echinochloa caudate were collected in Pingluo of Ningxia Province; Echinochloa oryzoides were collected in Qiqiha'er of Heilongjiang Province.
The culture was carried out in a controllable sunlight greenhouse at 20 to 30° C., in natural light, and relative humidity of 57% to 72%. […] The test soil was placed quantitatively to ¾ of the pots and then watered from the bottom of the pots to completely wet the soil to saturation. The pretreated test weed seeds were uniformly sowed on the surface, then covered with 0.5-2 cm soil according to the seed size, and ready-for use 24 hours after sowing.
The technical materials were all dissolved in acetone, and diluted with an aqueous solution containing 0.1% emulsifier T-80. The dilution is performed as required.
A ratio of A to the active ingredient B and amounts thereof in each group depends on the characteristics and toxicity of the two agents, as well as the main application purpose of a corresponding formulation. Based on the pre-tests in this study, the dosage of A and the active ingredient B applied alone and in combination were shown in the tables. Water containing the solvent and emulsifier same with the above groups but free of the agents was used as a blank control.
3 pots with 30 weed seeds per pot were treated in one treatment with 4 replications per treatment.
The pots which were sowed and mulched were evenly placed on a platform with an area of 0.5 m^2, and a solution of agents was sprayed on soil surface thereof by the 3WP-2000-type walking spray tower at a dosage of […] and at a spray pressure of 0.3 MPa. After all the solution was sprayed, the valve was closed. After 30 seconds, the door of the spray tower was opened, and the nutritional bowl was taken out. Then the valve was opened, and the spray tube was cleaned by spraying 50 ml of water.
This section was same as the section 4) in the post-emergence treatment by performing foliage spray, and was not repeated herein.

[5] = system: Galium aparine L.; assay: Post-emergence foliage spray, pot culture, fresh weight inhibition (Tables 1-48, 51-98, 101-148; 24 days); details: fresh weight inhibition after 24 days
Procedure, shortened: as §1

[6] = system: Echinochloa crusgalli var. zelayensis; assay: as above
Procedure, shortened: as §1

[7] = system: Conyza Canadensis; assay: Post-emergence foliage spray on Conyza Canadensis with a height of 10 cm, fresh weight inhibition (Tables 207-216; 24 days); details: 24 days after treatment
Experimental: The above weeds were cultivated by a pot culture method. […] Full and uniform weed seeds were selected, soaked in warm water at 25° C. for 6 hours, and germinated in a 28° C. biochemical incubator (darkness). The weed seeds that had just germinatedwere evenly placed on the surface of the soil and then covered with 0.5-1 cm soil according to the sizes of seeds.
The technical materials were all dissolved in acetone, and diluted with an aqueous solution containing 0.1% emulsifier Tween-80. The dilution is performed as required.
A ratio of the active ingredient A to the active ingredient B and amounts thereof in each group depends on the characteristics and toxicity of the two agents, as well as the main application purpose of a corresponding formulation. Based on the pre-tests in this study, the dosage of the active ingredient A and B applied alone and in combination were shown in the tables. Water containing the solvent and emulsifier same with the above groups but free of the agents was used as a blank control.
In the stage of weeds with 6˜8 leaves, the weeds were thinned out to maintain 3 weeds per pot and 30 weeds for each treatment, then continued to be cultured to Conyza Canadensis with a height of 10 cm, and treated.
The well-cultured weeds were evenly placed on a platform with an area of 0.5 m^2, and a solution of agents was sprayed on the stems and leaves thereof by the 3WP-2000-type walking spray tower at a dosage of 450 kg/ha and at a spray pressure of 0.3 MPa. After all the solution was sprayed, the valve was closed. After 30 seconds, the door of the spray tower was opened, and the nutritional bowl was taken out. Then the valve was opened, and the spray tube was cleaned by spraying 50 ml of water.
A pot-culture method was employed. For the cultivation of weeds, please refer to the Section 1.1), and “Pesticide guidelines for laboratory bioactivity tests—herbicides”. As to a method for applying agents, please refer to the section 2.3.2), that is, a foliage treatment was employed. After the treatment, the weeds were routinely cultured in a greenhouse.
as §2
Wherein, in the formula, X represented the fresh weight inhibition rate of the active ingredient A in a dosage of P, and Y represented the fresh weight inhibition rate of the active ingredient B in a dosage of Q.

Structure (SMILES): C[C@@H](Oc1nc(F)c(Cl)c(N)c1Cl)C(=O)O [Compound A1]
- Control effect (%) of A applied alone in corresponding dose ([1]; A1 75 g a.i./ha): 55.2%
- Control effect (%) of A applied alone in corresponding dose ([1]; A1 150 g a.i./ha): 76.3%
- Control effect (%) of A applied alone in corresponding dose ([1]; Table 80, 7.5 g a.i./ha): 55.2%
- Control effect (%) of A applied alone in corresponding dose ([1]; Table 80, 15 g a.i./ha): 76.3%
- Control effect (%) of A applied alone in corresponding dose ([1]; Table 81, 75 g a.i./ha): 55.2%
- Control effect (%) of A applied alone in corresponding dose ([1]; Table 81, 150 g a.i./ha): 76.3%
- Control effect (%) of A applied alone in corresponding dose ([1]; Table 85, 75 g a.i./ha): 55.2%
- Control effect (%) of A applied alone in corresponding dose ([1]; Table 85, 150 g a.i./ha): 76.3%
- Control effect (%) of A applied alone in corresponding dose ([1]; Table 86, 75 g a.i./ha): 55.2%
- Control effect (%) of A applied alone in corresponding dose ([1]; Table 86, 150 g a.i./ha): 76.3%
- Control effect (%) of A applied alone in corresponding dose ([1]; Table 89, 75 g a.i./ha): 55.2%
- Control effect (%) of A applied alone in corresponding dose ([1]; Table 89, 150 g a.i./ha): 76.3%
- Control effect (%) of A applied alone in corresponding dose ([1]; Table 97, 75 g a.i./ha): 55.2%
- Control effect (%) of A applied alone in corresponding dose ([1]; Table 97, 150 g a.i./ha): 76.3%
- Control effect (%) of A applied alone in corresponding dose ([2]; A1 7.5 g a.i./ha): 35.8%
- Control effect (%) of A applied alone in corresponding dose ([2]; A1 15 g a.i./ha): 69.6%
- Control effect (%) of A applied alone in corresponding dose ([3]; A1 7.5 g a.i./ha): 23.1%
- Control effect (%) of A applied alone in corresponding dose ([3]; A1 15 g a.i./ha): 55.6%
- Control effect (%) of A applied alone in corresponding dose ([3]; Table 91, 75 g a.i./ha): 23.1%
- Control effect (%) of A applied alone in corresponding dose ([3]; Table 91, 150 g a.i./ha): 55.6%
- Control effect (%) of A applied alone in corresponding dose ([3]; Table 92, 75 g a.i./ha): 23.1%
- Control effect (%) of A applied alone in corresponding dose ([3]; Table 92, 150 g a.i./ha): 55.6%
- Control effect (%) of A applied alone in corresponding dose ([3]; Table 93, 75 g a.i./ha): 23.1%
- Control effect (%) of A applied alone in corresponding dose ([3]; Table 93, 150 g a.i./ha): 55.6%
- Control effect (%) of A applied alone in corresponding dose ([3]; Table 94, 75 g a.i./ha): 23.1%
- Control effect (%) of A applied alone in corresponding dose ([3]; Table 94, 150 g a.i./ha): 55.6%
- Control effect (%) of A applied alone in corresponding dose ([3]; Table 95, 75 g a.i./ha): 23.1%
- Control effect (%) of A applied alone in corresponding dose ([3]; Table 95, 150 g a.i./ha): 55.6%
- Control effect (%) of A applied alone in corresponding dose ([3]; Table 96, 75 g a.i./ha): 23.1%
- Control effect (%) of A applied alone in corresponding dose ([3]; Table 96, 150 g a.i./ha): 55.6%
- Control effect (%) of A applied alone in corresponding dose ([4]; Table 99, 75 g a.i./ha): 23.4%
- Control effect (%) of A applied alone in corresponding dose ([4]; Table 99, 150 g a.i./ha): 47.2%
- Control effect (%) of A applied alone in corresponding dose ([4]; Table 100, 75 g a.i./ha): 23.4%
- Control effect (%) of A applied alone in corresponding dose ([4]; Table 100, 150 g a.i./ha): 47.2%

Structure (SMILES): C[C@@H](Oc1nc(F)c(Cl)c(N)c1Cl)C(=O)OCC1CCCO1 (stereo partly shown) [Compound A2]
- Control effect (%) of A applied alone in corresponding dose ([5]; A 7.5 g a.i/ha): 34.8%
- Control effect (%) of A applied alone in corresponding dose ([5]; A 15 g a.i/ha): 68.5%
- Control effect (%) of A applied alone in corresponding dose ([5]; A 150 g a.i/ha (so in the source)): 68.5%
- Control effect (%) of A applied alone in corresponding dose ([6]; A2 75 g a.i./ha): 54.2%
- Control effect (%) of A applied alone in corresponding dose ([6]; A2 150 g a.i./ha): 75.3%
- Control effect (%) of A applied alone in corresponding dose ([6]; A 75 g a.i./ha, foliage spray, fresh weight inhibition after 24 days): 54.2%
- Control effect (%) of A applied alone in corresponding dose ([6]; A 150 g a.i./ha, foliage spray, fresh weight inhibition after 24 days): 75.3%
- Control effect (%) of A applied alone in corresponding dose ([7]; A alone 60 g a.i./ha): 22.6%
- Control effect (%) of A applied alone in corresponding dose ([7]; A alone 120 g a.i./ha): 47.9%
